The source of these data is publication PMC6386991 (International Journal of Molecular Sciences, 2019).

For data set [1], the target named is T1, equine serum BuChE (EqBuChE) (Equus caballus, UniProt P81908).
T1 construct: equine serum BuChE (EqBuChE); from tissue; host or cells: equine serum
Nature of the data set: biochemical. To be noted: read-out: BuChE IC50 ± SD.

In a further data set the target is EeAChE (Electrophorus electricus, UniProt O42275). Nature of the data set: Kinetic characterization of AChE inhibition (Lineweaver–Burk plot). It counts as biochemical, electric eel. The settings on record: Km and Vmax. As to the method:
To obtain the mechanism of EeAChE inhibition, kinetic experiments were performed.
Kinetic characterization of AChE and BuChE was performed using the reported method with different concentrations of the substrate (S)—acetylthiocholine iodide (in range of […]) prepared in phosphate buffer (pH 8.0). […] Then, the inhibitor (14 µL) was added into the assay solution. Kinetic characterizations of the hydrolysis of acetylthiocholine […] catalyzed by AChE were done spectrophotometrically at 412 nm. A parallel control with no inhibitor in the mixture, allowed adjusting activities to be measured at various times.

In the next data set the target is Aβ (1–42) (Homo sapiens, UniProt P05067). Nature of the data set: Self-induced Aβ(1–42) aggregation, Thioflavin T assay. Type of data set: biochemical. An excerpt: Aβ(1–42) is the most amyloidogenic Aβ fragment found in the AD plaques.
Chain of Aβ (1–42) (P05067 672-713 limits assumed): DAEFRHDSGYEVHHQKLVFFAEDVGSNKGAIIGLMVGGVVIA
Amyloid β aggregation plays a definitive role in neurodegeneration and AD progression. Thus, inhibition of the Aβ aggregation has been presented as a promising approach for the AD therapy. In order to examine the ability to inhibit Aβ aggregation spectroscopic technique which is analyse with thioflavin T have been used. We investigated the best potent inhibitor towards AChE. […] As well as the study being conducted without the presence of the inhibitor. Aβ42 was dissolved in DMSO to make 125.8 µM stock solution. Each compound (10 µL) and 10 µL of Aβ42 were added into 60 µL of phosphate buffer (PBS at pH 8.0) in a 96-well plate. After shake and incubation for 24 h at 30 °C, 20 µL of 2.5 µM ThT solution in 50 mM glycine–NaOH (pH 8.5) was added. Fluorescence excitation was measured at 446 nm with emission a wavelength of 490 nm after 5 min incubation with the dye. The reported results were obtained as the mean ± SD of triplicates of three independent experiments. […]

Data set [2] is described as follows: pKa assay (UV spectra in buffers pH 5.6 to 12.4). Type of data set: physicochemical. To be noted: phosphate buffers in methanol:water (1:1), pH 5.6 to 12.4, Experimental. An excerpt: LogP is one of properties used in Lipinski’s rule of five. Our compounds were designed as a potential drug in AD therapy. Fulfillment of Lipinski’s rule of five allows us to suppose that the compound will show adequate pharmacokinetics. […] In the chemical structure of our compound occur four nitrogen atoms with a free ion pair, which allow us to gradually ionize the whole compound at different pH value. […] Direct determination of the ratio between consecutive form of molecule allows to measure the pKa value (Figure 2). The change of distribution charge in molecule affects noticeably the change of the ultraviolet (UV) spectra. […] We used absorbance ratios and mathematical calculation allowed to estimate specific pH value for each ionized form and finally to calculate pKa values (Figure 3). The value pKa1 calculated by ChemAxon and ACD/Percepta software are close to value pKa1 obtained by our method. pKa2 value calculated by ChemAxon software and pKa2 calculated by ACD/Percepta were inflated in comparison with our experimental result pKa2 (Table 3). […]
Spectrophotometric measurement was performed in 96 wells plate by using Synergy H1 microplate reader (BioTek, Vinoosky, VT, USA) with Gen5 software (BioTek). […] Further calculations on UV spectra were performed by using mathematical ratios of absorbance 332/343 nm and 343/332 nm and according to methodology developed by Musil et al.. […]

The nature of data set [3]: LogP assay (HPLC, calibration curve). It counts as physicochemical. The settings on record: reversed-phase HPLC, Waters Xbridge C18 column; Experimental. As for the experimental part:
After pKa assay we decided to use TEA because of the best properties for the assay. Coefficient of determination was over 0.96 for calibration curve (Figure 3). […] LogP values calculated by ChemAxon nad ACD/Percepta software were inflated in comparison to our experimental result (Table 3).
Methanol (POCH) was used as an organic modifier. Demineralized water was purified in our faculty. Triethylamine (TEA) (Sigma Aldrich) was dissolved in concentration 30 mM in methanol and in water. Ten various isocratic mobile phases were used in calibration and assay. The first mobile phase contained 50% methanol solution with 30 mM TEA and 50% water solution with 30 mM TEA. Each next mobile phase contained 5% more methanol solution; 95% methanol solution and 5% water solution mix was used as the last mobile phase; 30 mM triethylamine in all mobile phases allowed us to analyzed basic substances. Basic solutions were used, because a neutral form of the compounds was required in logP assay. […]
The test compound was eluted by all mobile phases and obtained retention times were used to calculate logkw value. LogP value was read from calibration curve. Obtained value was compared with calculated values by online software chemicalize.com (ChemAxon 2018) and ACD/Percepta Version 14.0.0 (Advanced Chemistry Development, Inc., Metropolitan Toronto, ON, Canada).

Data set [4] in a line: ABTS radical scavenging assay. To be noted: read-out: ABTS FRS50 ± SD.
Data set [5] is described as follows: DPPH free-radical scavenging assay. The settings on record: read-out: DPPH FRS50 ± SD. In general terms: DPPH is a stable violet radical that fades when it is reduced.
The target in data set [6] is AChE-BACE-1A protein pair (Homo sapiens, UniProt P22303+P56817). The experiment in a line: Yeast three-hybrid (Y3H) test, AChE-BACE-1A. The settings on record: 10 µM hybrid ligand, DDO/X/A agar plates.
Chain of AChE-BACE-1A protein pair (P22303 52-577): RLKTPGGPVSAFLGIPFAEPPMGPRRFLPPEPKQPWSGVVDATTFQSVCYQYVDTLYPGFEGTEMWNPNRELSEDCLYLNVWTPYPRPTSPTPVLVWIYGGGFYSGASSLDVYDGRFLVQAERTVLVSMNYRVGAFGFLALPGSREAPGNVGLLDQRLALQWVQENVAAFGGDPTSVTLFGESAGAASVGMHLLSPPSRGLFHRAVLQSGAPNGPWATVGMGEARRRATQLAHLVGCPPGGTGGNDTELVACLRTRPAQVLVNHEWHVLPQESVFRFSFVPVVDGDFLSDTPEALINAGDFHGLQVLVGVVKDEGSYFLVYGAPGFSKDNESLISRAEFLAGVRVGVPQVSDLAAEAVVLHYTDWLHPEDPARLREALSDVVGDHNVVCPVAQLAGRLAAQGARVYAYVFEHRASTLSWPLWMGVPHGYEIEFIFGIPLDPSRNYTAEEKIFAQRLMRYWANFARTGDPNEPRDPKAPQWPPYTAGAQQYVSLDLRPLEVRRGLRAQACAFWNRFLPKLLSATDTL
Chain of AChE-BACE-1A protein pair (P56817 46-457): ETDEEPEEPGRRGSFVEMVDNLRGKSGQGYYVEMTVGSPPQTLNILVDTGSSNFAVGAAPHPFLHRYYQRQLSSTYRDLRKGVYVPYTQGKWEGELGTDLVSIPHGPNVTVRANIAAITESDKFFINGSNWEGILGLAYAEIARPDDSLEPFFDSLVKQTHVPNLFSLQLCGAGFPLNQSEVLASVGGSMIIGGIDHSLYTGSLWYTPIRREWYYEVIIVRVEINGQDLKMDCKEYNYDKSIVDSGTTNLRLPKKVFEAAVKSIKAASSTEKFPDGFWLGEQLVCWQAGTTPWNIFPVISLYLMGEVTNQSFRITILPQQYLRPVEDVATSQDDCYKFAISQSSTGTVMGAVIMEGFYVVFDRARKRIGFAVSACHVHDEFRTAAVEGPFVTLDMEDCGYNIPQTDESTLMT
Data set [7] in a line: In vitro cytotoxicity assay (MTT) on CCL-110. The settings on record: human, CCL-110 cells (normal human skin fibroblasts).
Method: Cytotoxicity assay was performed on CCL-110 cell line (normal, human fibroblasts derived from skin). Test over a wide range of concentrations (including the concentrations close to the IC50 of enzymatic inhibition results) was performed.
The test system of data set [8] is SH-SY5Y cells. Nature of the data set: Neuroprotection against oxidative stress, H2O2, MTT.
In data set [9] the test system is SH-SY5Y cells. The experiment in a line: Neuroprotection against rotenone/oligomycin A, co-incubation, MTT. The settings on record: R/O mixture.
The subject of data set [10] is SH-SY5Y cells. The experiment in a line: Neuroprotection against rotenone/oligomycin A, pre-incubation, MTT. The settings on record: R/O mixture, compound 0.0001 µM.
Where [11] appears, read: Homo sapiens, SH-SY5Y, read-out: % cell viability.

Read-outs that look alike come from different tables or passages of the source.

Chain of EeAChE (O42275 24-633): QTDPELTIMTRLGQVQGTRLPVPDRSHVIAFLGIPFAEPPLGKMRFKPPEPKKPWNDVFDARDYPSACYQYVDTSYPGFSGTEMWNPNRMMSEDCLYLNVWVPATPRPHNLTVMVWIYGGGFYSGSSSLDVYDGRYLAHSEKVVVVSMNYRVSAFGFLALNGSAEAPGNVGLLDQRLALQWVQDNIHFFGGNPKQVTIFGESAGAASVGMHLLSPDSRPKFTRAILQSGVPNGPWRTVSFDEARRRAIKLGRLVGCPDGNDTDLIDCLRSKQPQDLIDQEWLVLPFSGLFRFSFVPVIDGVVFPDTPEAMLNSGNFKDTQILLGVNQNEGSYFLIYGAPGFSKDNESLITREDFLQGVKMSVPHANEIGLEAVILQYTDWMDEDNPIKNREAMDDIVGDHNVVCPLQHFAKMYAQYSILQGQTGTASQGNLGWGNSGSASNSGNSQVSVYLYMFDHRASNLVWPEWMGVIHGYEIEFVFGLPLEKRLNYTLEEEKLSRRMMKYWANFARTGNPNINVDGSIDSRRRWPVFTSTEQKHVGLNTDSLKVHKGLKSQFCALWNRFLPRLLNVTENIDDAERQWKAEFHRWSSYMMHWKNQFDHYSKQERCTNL
T1 sequence (P81908 whole entry): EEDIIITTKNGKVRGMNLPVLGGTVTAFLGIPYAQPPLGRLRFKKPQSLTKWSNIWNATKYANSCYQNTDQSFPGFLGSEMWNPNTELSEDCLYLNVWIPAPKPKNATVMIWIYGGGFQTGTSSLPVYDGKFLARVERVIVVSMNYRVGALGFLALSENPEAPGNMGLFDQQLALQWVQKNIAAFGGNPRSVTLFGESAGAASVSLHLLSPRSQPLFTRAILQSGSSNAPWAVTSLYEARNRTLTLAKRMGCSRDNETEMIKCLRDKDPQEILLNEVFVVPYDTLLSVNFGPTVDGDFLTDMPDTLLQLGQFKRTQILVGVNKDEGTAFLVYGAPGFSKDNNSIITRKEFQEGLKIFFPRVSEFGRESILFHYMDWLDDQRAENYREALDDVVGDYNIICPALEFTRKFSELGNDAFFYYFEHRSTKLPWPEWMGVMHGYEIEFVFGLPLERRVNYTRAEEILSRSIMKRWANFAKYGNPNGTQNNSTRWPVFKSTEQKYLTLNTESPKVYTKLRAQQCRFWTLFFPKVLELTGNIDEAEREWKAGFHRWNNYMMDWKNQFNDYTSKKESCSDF

In general, IC50 refers to the concentration at which inhibition is half-maximal. The term inhibition denotes the percentage by which the read-out fell short of the control. A lower inhibition goes with a response near the control. In general, chromatographic logP refers to a lipophilicity value derived from retention on a column. The low end stands for lower lipophilicity, the high end for higher lipophilicity. In general, viability refers to a read-out of living cells in per cent, often relative to untreated cells. Consider `O=C(NCCCCCCNc1c2c(nc3ccccc13)CCC2)c1ccc(Cl)nc1` [Compound 3e], for which, in data set [1], the IC50 amounted to 0.153 ± 0.02 µM. The “type of EeAChE inhibition” value at EeAChE is given as “mixed inhibition”. At Aβ (1–42), this compound displayed an IC50 of 15 ± 0.6 µM. In addition, at 10 µM the inhibition on Aβ (1–42) (10 µM compound) was 40 ± 4.8%. This compound yielded an inhibition at 25 µM on Aβ (1–42) (25 µM compound) of 63 ± 4.2%. Besides, at Aβ (1–42) (50 µM compound), 50 µM produced 72 ± 2.9% inhibition. In addition, at 100 µM the inhibition against Aβ (1–42) (100 µM compound) was 79 ± 3.2%. In addition, the pKa in data set [2] (read-out: pKa1) was determined as 8.53. The pKa in data set [2] (read-out: pKa2) came out at 11.3. Also, the chromatographic logP in data set [3] is 3.99. Besides, in the data set “in vitro”, the viability at 24 h, 0.1 µM turned out to be 100%; the viability at 24 h, 1 µM was determined as 99.7%; the viability at 24 h, 10 µM turned out to be 93%. Moreover, the EC50 in data set [4] is > 20000 µM. The EC50 in [5] was > 20000 µM. Moreover, the “hybrid ligand-induced interaction AChE-BACE-1A” value in data set [6] is on record as “Blue colonies, indicating putative interaction”. The compound further displayed an IC50 at 48 h in data set [7] of 0.638 µM. For the same compound, in the data set with SH-SY5Y cells [8] (H2O2 100 µM, compound 10–0.01 µM), the “neuroprotective activity (in words)” value is on record as “at none concentration, 3e had neuroprotective activity”. Besides, in the data set on SH-SY5Y cells [8] (setting [11]), the viability at 0.01 µM came out at 60.4%, the viability at 0.1 µM was 29.2%, the viability at 1 µM came to 18.4% and the viability at 10 µM turned out to be 14.3%. Also, the “neuroprotective properties (in words)” value in the data set on SH-SY5Y cells [9] is given as “did not have neuroprotective properties at any concentrations”. The neuroprotection in the data set with SH-SY5Y cells [10] turned out to be 3.98%.
